Reference: ChEMBL document CHEMBL1153339, “Design, synthesis, and anti-HCV activity of thiourea compounds” (Bioorg Med Chem Lett, 2009)
pEC50: −log10 of the molar value.

What was measured:
[1] = Selectivity index, ratio of CC50 for human Ava5 cells to EC50 for HCV 1b
[2] = Cytotoxicity against human Ava5 cells; type: cell-based
Hepatitis C virus = assay: Antiviral activity against HCV 1b infected in human Ava5 cells expressing EG(delta-4AB)SEAP fusion protein by subgenomic replicon assay; type: functional, organism-based, Hepacivirus hominis; conditions: genotype 1b

Row | SMILES | Ratio CC50/EC50 [1] | CC50 [2] [µM] | pEC50 (Hepatitis C virus)
1 | NC(=S)Nc1cccc(OCCCCCOc2ccc(N3CCCC3)cc2)c1 | 18 | 16 | 6.04
2 | S=C(NCc1ccccc1)Nc1cccc(OCCCCCc2ccccc2)c1 | 4 | 32 | 5.14
3 | CC(CCOc1ccccc1)CCOc1cccc(NC(N)=S)c1 (stereo unspecified) | >481 | > 50 | 6.98
4 | NC(=S)Nc1cccc(OCCCCCOc2ccc(N3CCCCC3)cc2)c1 | 29 | 12 | 6.39
5 | NC(=S)Nc1cccc(OCCCCCOc2cccc3cnccc23)c1 | 54 | 26 | 6.32
6 | NC(=S)Nc1cccc(NCCCCCc2ccccc2)c1 | >350 | > 50 | 6.84
7 | NC(=S)Nc1cccc(OCCCCCOc2cccc(Oc3ccccc3)c2)c1 | 168 | 18 | 6.97
8 | NC(=S)Nc1cccc(OCCc2ccccc2)c1 | >149 | > 50 | 6.47
9 | NC(=S)Nc1cccc(OCCCCCOc2cccc3[nH]ccc23)c1 | >141 | > 50 | 6.45
10 | NC(=S)Nc1cccc(OCCCCCOc2ccc(-c3ccccc3)cc2)c1 | >262 | > 50 | 6.72
11 | NC(=S)Nc1ccccc1OCCCCCc1ccccc1 | 31 | 31 | 5.99
12 | NC(=S)Nc1cccc(OCCCc2ccccc2)c1 | >216 | > 50 | 6.64
13 | NC(=S)Nc1cccc(OCc2ccccc2)c1 | >89 | > 50 | 6.25
14 | NC(=S)Nc1cccc(OCCCCCOc2ccncc2)c1 | >17 | > 50 | 5.52
15 | NC(=S)Nc1cccc(OCCCCCOc2cccc3ncccc23)c1 | 60 | 15 | 6.60
16 | NC(=S)Nc1cccc(OCCCCCCc2ccccc2)c1 | 596 | 28 | 7.33
17 | CC(C)(CCOc1ccccc1)CCOc1cccc(NC(N)=S)c1 | 124 | 13 | 6.98
18 | NC(=S)Nc1cccc(OCCCCCOc2cccc(-c3ccccc3)c2)c1 | 61 | 13 | 6.67
19 | S=C(NCCc1ccccc1)Nc1cccc(OCCCCCc2ccccc2)c1 | 2 | 33 | 4.87
20 | NC(=S)Nc1cccc(OCCCCCCCc2ccccc2)c1 | 237 | 23 | 7.01
21 | NC(=S)Nc1cccc(OCCCCCOc2ccc(C(=O)O)cc2)c1 | >1 | > 50 | < 4.30
22 | NC(=S)Nc1cccc(OCCCCCOc2cccnc2)c1 | >44 | > 50 | 5.95
23 | CNC(=S)Nc1cccc(OCCCCCc2ccccc2)c1 | >61 | > 50 | 6.09
24 | NC(=S)Nc1cccc(OCCCCCOc2ccc(N3CCOCC3)cc2)c1 | >103 | > 50 | 6.31

Row | SMILES | Ratio CC50/EC50 [1] | CC50 [2] [µM] | pEC50 (Hepatitis C virus)
25 | NC(=S)Nc1cccc(OCCCCCOc2ccc(F)cc2)c1 | 69 | 5 | 7.14
26 | NC(=S)Nc1cccc(OCCCCCOc2ccc(-c3cccs3)cc2)c1 | >413 | > 50 | 6.92
27 | CCCNC(=S)Nc1cccc(OCCCCCc2ccccc2)c1 | 45 | 32 | 6.15
28 | NC(=S)Nc1cccc(OCCCCCOc2ccccc2-c2ccccc2)c1 | 134 | 13 | 7.01
29 | COc1ccc(OCCCCCOc2cccc(NC(N)=S)c2)cc1 | >229 | > 50 | 6.66
30 | NC(=S)Nc1cccc(OCCCCCOc2ccc(Br)cc2)c1 | 264 | 19 | 7.14
31 | CCN(CC)c1ccc(OCCCCCOc2cccc(NC(N)=S)c2)cc1 | >84 | > 50 | 6.23
32 | CCNC(=S)Nc1cccc(OCCCCCc2ccccc2)c1 | >73 | > 50 | 6.16
33 | NC(=S)Nc1cccc(OCCCCCc2ccccc2)c1 | 458 | 22 | 7.32
34 | NC(=S)Nc1cccc(OCCCCCOc2cccc(Cc3ccccc3)c2)c1 | 224 | 13 | 7.24
35 | NC(=S)Nc1cccc(OCCCCCOc2ccccn2)c1 | >179 | > 50 | 6.55
36 | NC(=S)Nc1cccc(OCCCCCOc2ccnc3ccccc23)c1 | 58 | 24 | 6.39
37 | NC(=S)Nc1cccc(OCCCCCOc2ccccc2)c1 | >847 | > 50 | 7.23
38 | NC(=S)Nc1cccc(OCCCCCOc2cccc(C(=O)c3ccccc3)c2)c1 | 60 | 13 | 6.66
39 | NC(=S)Nc1cccc(Oc2ccccc2)c1 | >101 | > 50 | 6.31
40 | NC(=S)Nc1cccc(OCCCCCOc2cccc3ccccc23)c1 | 241 | 14 | 7.24
41 | NC(=S)Nc1cccc(OCCCCCOc2ccc(-c3ccco3)cc2)c1 | 81 | 11 | 6.87
42 | S=C(Nc1ccccc1)Nc1cccc(OCCCCCc2ccccc2)c1 | 1 | 35 | 4.50
43 | NC(=S)Nc1cccc(OCCCCCOc2ccc(Cl)cc2)c1 | 97 | 7 | 7.14
44 | NC(=S)Nc1ccc(OCCCCCc2ccccc2)cc1 | 51 | 10 | 6.71
45 | NC(=S)Nc1cccc(OCCCCCOc2ccc(-n3cccc3)cc2)c1 | >196 | > 50 | 6.59
46 | NC(=S)Nc1cccc(OCCCCc2ccccc2)c1 | >314 | > 50 | 6.80
47 | NC(=S)Nc1cccc(OCCCCCOc2cccc(Nc3ccccc3)c2)c1 | 62 | 11 | 6.75
